Assay results: patent publication US20260294863A1, “METHOD OF TREATING FIBROTIC-RELATED CONDITION” (YISSUM RESEARCH DEVELOPMENT COMPANY OF THE HEBREW …, priority 2023, published 2026)
“Also recorded” adds a separate entry of the source.

What was measured:
[1] = Body weight in bleomycin-induced lung fibrosis; format: in vivo, C57BL/6JOlaHsd mice; settings: AN1284 2.5 mg/kg/day, days 11 and 14 after bleomycin, males
Method: (§1) The animal model of bleomycin-induced lung fibrosis is widely used to characterize the potential inhibitory effect of newly developed drugs (Distler et al. 2019). Experiments were performed in C57BL/6JOlaHsd male and female mice aged 12-13 weeks. Male mice weighed 23-27.3 g and female mice, 19.4-21.1 g. They were housed under pathogen-free conditions, up to 6 per cage, in IVC cages under a controlled temperature of 22-24° C., humidity and alternating 12-h light/dark cycles and provided with food and water ad libitum. In order to minimize the stress of daily injection, ladostigil (5 mg/Kg/day) was administered by micro-osmotic pumps, implanted subcutaneously under ketamine/xylazine anesthesia, 5 days before administration of bleomycin, and delivered for 3 weeks to mice of each sex. Saline (2-3/sex) and bleomycin controls were anesthetized as described above. Bleomycin solution (0.25 mg/kg in 50 μl) was instilled into the lumen of the trachea as shown in a video by Ehrentraut et al. (2019). […] Mice were weighed daily and sacrificed on day 21. Bronchial fluid was collected as described in Ehrentraut et al. (2019). TNFα and IL-6 in the bronchial fluid lavage was measured by ELISA as described in the preceding section.
(§2) Experiments were performed in C57BL/6JOlaHsd male mice aged 12-13 weeks as described for ladostigil. AN1284 (2.5 mg/kg/day) was administered by micro-osmotic pumps, implanted subcutaneously under ketamine/xylazine anesthesia, 5 days before administration of bleomycin and delivered for 3 weeks. Mice were weighed daily, sacrificed on day 21 and bronchial fluid was collected. Fibrosis was measured by staining with Sirius red as described for ladostigil. TNFα and IL-6 in the bronchial fluid lavage was measured by ELISA as described for ladostigil.

[2] = tested on: bleomycin-induced lung fibrosis; test: Lung fibrosis score / collagen content in bleomycin-induced lung fibrosis; format: in vivo, C57BL/6JOlaHsd mice
Method: as §1
Specimens taken from the left lung were embedded in paraffin and cut into 5 μm-thick slices. They were put on slides and paraffin was removed. They were rehydrated and stained with a solution of Sirius red (100 mg/100 ml of [COMPOUND LEFT OUT], rinsed in distilled water until clear, dehydrated and mounted in a resinous medium. The red stain (also called “Sirius red” stain) is one of the best understood histochemical techniques. It relies on the birefringent properties of collagen and is much more specific than the other common collagen stains, Pulmonary fibrosis was evaluated on a score of 0-4 on 15-20 different fields taken from each lung section, according to the area and intensity of fibrotic staining in the field, excluding that in blood vessels. Two independent scientists blinded to the treatment performed the analysis. For TGFβ1 staining, slides were deparaffinized and rehydrated. Antigen retrieval was performed in Tris-based buffer, pH 9.0. Endogenous peroxidase activity was quenched by incubation in 3% H2O2. The tissue was permeabilized with Triton X-100 0.1% in PBS. After blocking, sections were incubated with primary antibody: diluted rabbit recombinant monoclonal TGFβ1 antibody (Abcam ab215715) over night, at 4° C. Slices were further incubated with the secondary antibody: ImmPRESS®-HRP Goat Anti-Rabbit IgG Polymer Detection Kit, Peroxidase (Vector labs VE-MP-7451-15) at room temperature. For color development, sections were incubated in peroxidase substrate solution DAB, at room temperature until desired stain intensity developed. They were then counterstained with filtered hematoxylin and cosin, cleared and mounted.
as §2

TNFα [3] = test: TNFα in bronchial fluid, bleomycin-induced lung fibrosis (ELISA); format: in vivo, C57BL/6JOlaHsd mice; settings: AN1284 2.5 mg/kg/day, bleomycin, males; 2.5 mg/kg/day
Method: (§3) The animal model of bleomycin-induced lung fibrosis is widely used to characterize the potential inhibitory effect of newly developed drugs (Distler et al. 2019). Experiments were performed in C57BL/6JOlaHsd male and female mice aged 12-13 weeks. Male mice weighed 23-27.3 g and female mice, 19.4-21.1 g. They were housed under pathogen-free conditions, up to 6 per cage, in IVC cages under a controlled temperature of 22-24° C., humidity and alternating 12-h light/dark cycles and provided with food and water ad libitum. In order to minimize the stress of daily injection, ladostigil (5 mg/Kg/day) was administered by micro-osmotic pumps, implanted subcutaneously under ketamine/xylazine anesthesia, 5 days before administration of bleomycin, and delivered for 3 weeks to mice of each sex. Saline (2-3/sex) and bleomycin controls were anesthetized as described above. Bleomycin solution (0.25 mg/kg in 50 μl) was instilled into the lumen of the trachea as shown in a video by Ehrentraut et al. (2019). […] TNFα and IL-6 in the bronchial fluid lavage was measured by ELISA as described in the preceding section.
(§4) Experiments were performed in C57BL/6JOlaHsd male mice aged 12-13 weeks as described for ladostigil. […] Fibrosis was measured by staining with Sirius red as described for ladostigil. TNFα and IL-6 in the bronchial fluid lavage was measured by ELISA as described for ladostigil.

IL-6 = IL-6 in bronchial fluid, bleomycin-induced lung fibrosis (ELISA); format: in vivo, C57BL/6JOlaHsd mice; settings: AN1284 2.5 mg/kg/day, bleomycin, males; 2.5 mg/kg/day
Method: as §3, §4

Nrf2 = Nrf2 in RAW cells activated by LPS; format: cell-based
Method: (§5) RAW 264.7 cells were seeded at a density of 1×10^5 cells per well in 48-well culture plates and grown overnight in DMEM supplemented as indicated above. The wells were washed with PBS (pH 7.4). AN1284, prepared in sterile double distilled water and Budesonide (positive control) were added to give final concentrations ranging from 1× 10^−13-1×10^−7M in medium containing 2% FCS. The cells were incubated for 2 h at 37° C. prior to stimulation with LPS, 2.5 μg/mL from Escherichia coli (Sigma-Aldrich serotype 0111: B4). Supernatants were harvested after 8 hrs for measurement of TNF-α and 24 h for IL-6. TNF-α and IL-6 protein were detected by a commercial ELISA kit (Biolegend, San Diego, CA, USA) according to the manufacturer's instructions. Each concentration of each compound was tested in two-three separate experiments in 6 wells per concentration.
(§6) RAW 264.7 cells were lysed in 0.1 ml of buffer containing 150 mM Tris-Cl (pH 6.8), 10% Glycerol, 0.6% SDS, Bromophenol Blue and 100 mM β-Mercaptoethanol. Lysates were collected and heated at 95° C. for 5 min, then centrifuged for 3 min at 2,240 g. Supernatants were used for gel separation. Protein concentration of the lysates was determined by using Coomassie Brilliant Blue staining. […] Molecular changes were assessed semi-quantitatively after incubation with primary antibodies for relevant proteins.

NLRP3 = NLRP3 in RAW cells activated by LPS; format: cell-based
Method: as §5, §6

Egr1 = Egr1 in RAW cells activated by LPS; format: cell-based
Method: as §5, §6

[4] = tested on: cytotoxicity resulting from oxidative stress; settings: cited from earlier work
[5] = tested on: LPS-activated macrophages; settings: cited from earlier work
MAPK p38 = settings: cited from earlier work
Activator protein-1 = settings: cited from earlier work
[6] = tested on: non-alcoholic steatohepatitis (NASH); settings: 1 mg/kg/day, two months, micro-osmotic pumps; cited from earlier work
[7] = tested on: Aryl hydrocarbon receptor (AhR); settings: 1 mg/kg/day, two months, NASH mice; cited from earlier work
TNFα [8] = test: Secretion of TNFα from BzATP/LPS-activated microglia (ELISA); format: cell-based, Balb/C mice; settings: all concentrations tested, added 2 hrs before BzATP and LPS, 0.1% BSA; p<0.01
Method: (§7) Experiments were performed on primary microglial cells isolated from brains of neonatal Balb/C mice as previously described (Reichert and Rotshenker, 2003). The brains were stripped of their meninges and enzymatically dissociated. Cells were plated on Poly-L-lysine coated flasks for one week, re-plated for 1- to 2-hr on bacteriological plates and non-adherent cells were washed away. Microglia were propagated by incubation in 20% of medium, conditioned by the L-cell line that produces mouse-CSF. They were identified by morphology and positive immune-reactivity to P2y12, F4/80, complement receptor-3 and Galectin-3/MAC-2 (Reichert and Rotshenker 2003; Gitik et al. 2011).
(§8) Cytokines were measured as previously described (Shamash et al. 2002) using ELISA Max deluxe set (Biolegend, CA, USA) for secreted TNFα and IL-6 proteins and ELISA DuoSet (R&D systems, UK) for secreted and cell associated IL-1β, according to manufacturer's instructions.
(§9) The effect of ladostigil at concentrations of 1×10^−13 M to 1×10^−9 M on the secretion of cytokine proteins was assessed by adding it to microglia for 2 hr before LPS (0.75 μg/ml) and BzATP (400 μM). Other microglia were treated similarly with the steroid, budesonide as a reference standard at concentrations of 1× 10^−13 to 1× 10^−11 M. Measurements of cytokine secretion were performed 8 hrs after addition of LPS and BzATP. Since the levels of secreted IL-1β were still low, samples were concentrated 2- to 4-fold by an Amicon ultra-centrifugal filter device (Merck-Millipore, Ireland). ELISA was used to quantify the levels of cytokine proteins. Protein content in the microglia lysate was measured by Bradford and levels of cytokines were calculated and presented as pg/μg of microglial protein.

IL6 = test: Secretion of IL6 from BzATP/LPS-activated microglia (ELISA); format: cell-based, Balb/C mice; settings: all concentrations tested
Method: as §7, §8, §9

IL1β = test: Secretion of IL1β from BzATP/LPS-activated microglia (ELISA); format: cell-based, Balb/C mice
Method: as §7, §8, §9

[9] = Mortality in bleomycin-induced lung fibrosis; format: in vivo, C57BL/6JOlaHsd mice; settings: bleomycin alone
Method: as §1, with “In order to minimize the stress of daily injection, ladostigil (5 mg/Kg/day) was administered by micro-osmotic pumps, implanted subcutaneously under ketamine/xylazine anesthesia, 5 days before administration of bleomycin, and delivered for 3 weeks to mice of each sex.” left out

[10] = Body weight in bleomycin-induced skin sclerosis; format: in vivo, C57BL/6 mice; settings: bleomycin, days 24-27
Method: (§10) Male C57BL/6 mice aged 8 weeks were housed under pathogen-free conditions at a controlled temperature of 22-24° C., humidity and alternating 12-h light/dark cycles and provided with food and water ad libitum. Skin sclerosis was induced as described by Ravanetti et al, (2020). A small incision was made in the skin at the back caudal to the scapulae and subcutaneous pocket was created into which an Alzet micro-osmotic pump was implanted, and the incision closed with two stiches and a surgical clip. The pumps contained bleomycin, (delivered at the rate of 60 U/kg body weight) or saline (control) and were removed 10 days after implantation. The mice were monitored daily until they recovered completely and weighed twice weekly from the beginning of the experiment.
(§11) Ladostigil (10 mg/kg/day) was administered in the drinking fluid to 10 mice, housed 2/cage, from 3 days before bleomycin pump installation until the end of the experiment. The fluid intake of the mice was measured daily. The dose of ladostigil was adjusted accordingly. Bleomycin alone, (10 mice) and saline controls (6 mice) received regular drinking fluid.

skin sclerosis = test: Dermal and hypodermal thickness in bleomycin-induced skin sclerosis; format: in vivo, C57BL/6 mice; settings: bleomycin treatment
Method: as §10, §11
Skin was harvested on the gluteal region to avoid dermal fibrosis artifact due to proximity to the site of implant. For histological assessment, the samples were dehydrated in a graded ethanol series, clarified in xylene, and paraffin embedded. They were mounted on slides and paraffin was removed. Sections of 5 μm thickness were cut with a rotary microtome and stained with hematoxylin and eosin (H&E)

## CC(C)NCCCN1CCc2ccccc21.Cl.Cl [AN1284, 3-(indolin-1-yl)-N-isopropylpropan-1-amine 2HCl]
[1]
  body weight loss: reduced body weight loss
[2]; AN1284 2.5 mg/kg/day by micro-osmotic pumps, males
  collagen levels / fibrosis score: reduced fibrosis score
[2]; bleomycin-induced lung fibrosis murine model
  fibrosis (overall conclusion): shown to reduce fibrosis
TNFα [3]
  TNFα in bronchial fluid: does not affect levels of pro-inflammatory cytokines; also recorded: did not reduce
IL-6
  IL-6 in bronchial fluid: does not affect levels of pro-inflammatory cytokines; also recorded: did not reduce
Nrf2; LPS + AN1284 0.1 nM, LPS + vehicle 2.3
  Nrf2: 1.6
Nrf2; LPS-activated RAW cells
  expression of Nrf2: decreased the expression of Nrf2
NLRP3; LPS + AN1284 0.1 nM, LPS + vehicle 1.6
  NLRP3: 1.1
NLRP3; LPS-activated RAW cells
  expression of NLRP3: effectively reduce expression of NLRP3
Egr1; LPS + AN1284 0.1 nM, LPS + vehicle 2.7
  Egr1: 1.3
Egr1; LPS-activated macrophages
  EGR1: reduced ERG1 in macrophages
[4]
  cytotoxicity resulting from oxidative stress: inhibited cytotoxicity
[5]
  release of pro-inflammatory cytokines: reduced the release of pro-inflammatory cytokines
MAPK p38
  phosphorylation of MAPK p38: inhibiting phosphorylation of MAPK p38
Activator protein-1
  nuclear translocation of Activator protein-1: inhibiting phosphorylation of MAPK p38 and nuclear translocation of Activator protein-1
[6]
  steatosis, lipogenesis, and fibrosis: attenuated steatosis, lipogenesis, and fibrosis
[7]
  activation of AhR: activation of the Aryl hydrocarbon receptor (AhR)

## CCCC1O[C@@H]2C[C@H]3[C@@H]4CCC5=CC(=O)C=C[C@]5(C)[C@H]4[C@@H](O)C[C@]3(C)[C@]2(C(=O)CO)O1 (stereo partly drawn) [budesonide, reference compound]
TNFα [8]
  reduction of TNFα release: reduced the 3 cytokines significantly
IL6; added 2 hrs before BzATP and LPS, 0.1% BSA, p<0.01
  reduction of IL6 release: reduced the 3 cytokines significantly
IL6; p<0.001
  reduction of IL6 compared with reduction of TNF: greater than those of TNF
IL1β; all concentrations tested, added 2 hrs before BzATP and LPS, 0.1% BSA, p<0.01
  reduction of IL1β release: reduced the 3 cytokines significantly
IL1β; ladostigil 1×10^−9 M, budesonide 1×10^−11 M
  reduction of IL1β compared with reduction of TNFα: greater than that of TNFα

## bleomycin [reference compound]
[9]; females, days 7 to 17 (6/38)
  mortality: 16%
[9]; males, days 16-19 (5/16)
  mortality: 31%
[10]
  weight gain compared with saline: smaller increase in weight
Skin sclerosis
  hypodermis thickness change caused: thinning of the hypodermis
  skin (dermal) thickness change caused: thickening
